The results in this text go back to ChEMBL document CHEMBL3046457, “Chemical characterization of the aphid antifeedant extracts from Dittrichia viscosa and Ferula communis” (2012).

Common to all, as to format: functional
The test system of assay [1] is Myzus persicae. The assay is described as follows: Insecticidal activity against Myzus persicae (green peach aphid) in compound treated leaf disk assessed as settled on leaf disk at 10 ug/cm'2 relative to control (reference value: 39 +/- 6 to 98 +/- 1%).
In assay [2] the test system is Myzus persicae. The assay is described as follows: Insecticidal activity against Myzus persicae (green peach aphid) in compound treated leaf disk assessed as settled on leaf disk at 100 ug/cm'2 relative to control (reference value: 39 +/- 6 to 98 +/- 1%).
Assay [3] relates to Myzus persicae. Put plainly: Insecticidal activity against Myzus persicae (green peach aphid) in compound treated leaf disk assessed as settling inhibition on leaf disk at 100 ug/cm'2 relative to control.
Assay [4] concerns Myzus persicae. Put plainly: Insecticidal activity against Myzus persicae (green peach aphid) in compound treated leaf disk assessed as settling inhibition on leaf disk at 50 ug/cm'2 relative to control.
The subject of assay [5] is Myzus persicae. The assay is described as follows: Insecticidal activity against Myzus persicae (green peach aphid) in compound treated leaf disk assessed as settling inhibition on leaf disk at 10 ug/cm'2 relative to control.
Assay [6] concerns Myzus persicae. Put plainly: Insecticidal activity against Myzus persicae (green peach aphid) in compound treated leaf disk assessed as settled on leaf disk at 50 ug/cm'2 relative to control (reference value: 39 +/- 6 to 98 +/- 1%).
Assay [7] concerns Myzus persicae. The assay is described as follows: Insecticidal activity against Myzus persicae (green peach aphid) in compound treated leaf disk assessed as settled on leaf disk.

Regarding `CC(C)=CCC/C(C)=C/CC/C(C)=C/Cc1c(O)c2ccccc2oc1=O`, the “inhibition (INH)” value in assay [1] is reported as 28%; in assay [2], 26%; in assay [3], 62%; in assay [4], 71%; in assay [5], 63%; in assay [6] it was 20%.
On to `C=C1C(=O)O[C@H]2CC(=C)[C@H]3CC[C@@](C)(O)[C@@H]3C[C@H]12` [INUVISCOLIDE], for which the “inhibition (INH)” value in assay [1] amounted to 43%; in assay [2], 31%; in assay [3] it was 56%; in assay [4] it was 50%; in assay [5], 38%; in assay [6], 39%.
Regarding `C=C1C(=O)O[C@@H]2C[C@H](C)C(CCC(C)=O)=CC[C@H]12` [TOMENTOSIN], the “inhibition (INH)” value in assay [1] amounted to 61%; in assay [2], 2%; in assay [3], 98%; in assay [4], 48%; in assay [5], 19%; in assay [6], 35%. In assay [7], the ED50 was 31.9 microg/cm2.
